Source: patent US10047076B2, “Halogen-substituted compounds” (BAYER CROPSCIENCE AKTIENGESELLSCHAFT, priority 2014, dated 2018)

What was measured:
[1] = test system: Spodoptera frugiperda; experiment: Spodoptera frugiperda spray test; type: in vivo; conditions: caterpillars on maize leaf discs, after 7 days
Text: (§1) Solvent: 78.0 parts by weight of acetone

[2] = test system: Boophilus microplus; experiment: Boophilus microplus injection test; type: in vivo; conditions: 20 μg/animal, engorged adult female ticks, after 7 days
Method: (§2) Solvent: dimethyl sulphoxide
1 μl of the active compound solution is injected into the abdomen of 5 engorged adult female cattle ticks (Boophilus microplus). The animals are transferred into dishes and kept in a climate-controlled room.
(§3) Efficacy is assessed after 7 days by laying of fertile eggs. Eggs which are not visibly fertile are stored in a climate-controlled cabinet until the larvae hatch after about 42 days. An efficacy of 100% means that none of the ticks has laid any fertile eggs; 0% means that all the eggs are fertile.

[3] = test system: Phaedon cochleariae; experiment: Phaedon cochleariae spray test; conditions: larvae on Chinese cabbage leaf discs, after 7 days
[4] = test system: Musca domestica; experiment: Musca domestica test; type: in vivo; conditions: 100 ppm, adult houseflies, after 2 days
Text: as §2
Vessels containing a sponge treated with sugar solution and the active compound preparation of the desired concentration are populated with 10 adult houseflies (Musca domestica).

[5] = test system: Lucilia cuprina; experiment: Lucilia cuprina test; type: in vivo; conditions: 100 ppm, L1 larvae, after 2 days
Method: as §2
About 20 L1 larvae of the Australian sheep blowfly (Lucilia cuprina) are transferred into a test vessel containing minced horsemeat and the active compound preparation of the desired concentration.
After 2 days, the kill in % is determined.

[6] = test system: Ctenocephalides felis; experiment: Ctenocephalides felis oral test; type: in vivo; conditions: 100 ppm in citrated cattle blood, after 2 days
Text: as §2
Dilution with citrated cattle blood gives the desired concentration.
About 20 unfed adult cat fleas (Ctenocephalides felis) are placed into a chamber which is closed at the top and bottom with gauze. A metal cylinder whose bottom end is closed with parafilm is placed onto the chamber. The cylinder contains the blood/active compound preparation, which can be imbibed by the fleas through the parafilm membrane.

[7] = log P determination by HPLC on reversed-phase column (C18), EEC Directive 79/831 Annex V.A8, acidic (formic acid); type: physicochemical; conditions: HPLC method a), acetonitrile/water with formic acid
Method: ^1 The stated mass is the peak of the isotope pattern of the [M+H]^+ ion of the highest intensity; if the [M-H]^- ion was detected, the stated mass is identified with ^2. ^2 The stated mass is the peak of the isotope pattern of the [M-H]^- ion of the highest intensity. ^a) Note regarding the determination of the log P values and mass detection: The determination of the given log P values was carried out in accordance with EEC Directive 79/831 Annex V.A8 by HPLC (High Performance Liquid Chromatography) on a reversed-phase column (C18). […] Mass detection is effected by means of an […] system. ^b) Note regarding the determination of the retention time and mass detection: The stated retention times were determined on a reversed-phase column (C18) Shimadzu LCMS 2020; 50*3.0 Shimadzu shim-pack XR-ODS 2.2 micron; mobile phase A: water (0.05% TFA); mobile phase B: acetonitrile; linear gradient from 5% acetonitrile to 95% acetonitrile in 6.00 min, then 95% acetonitrile for a further 1.1 min; oven temperature 40° C.; flow rate: 1.0 ml/min. ^c) Note regarding the determination of the retention time and mass detection: Instrument: Waters ACQUITY SQD UPLC system; column. Waters Acquity UPLC HSS T3 1.8μ 50×1 mm; mobile phase A: 1 l of water+0.25 ml of 99% strength formic acid, mobile phase B: 1 l of acetonitrile+0.25 ml of 99% strength formic acid; gradient: 0.0 min 90% A→1.2 min 5% A→2.0 min 5% A oven: 50° C.; flow rate: 0.40 ml/min; UV detection: 208-400 nm. ^d) Note regarding the determination of the retention time and mass detection: […] The determination of the given log P values was carried out in accordance with EEC Directive 79/831 Annex V.A8 by HPLC (High Performance Liquid Chromatography) on a reversed-phase column (C18). […] Mass detection is effected by means of an […] system.

[8] = test system: Amblyomma hebraeum; experiment: Amblyomma hebaraeum test (AMBYHE), tick nymphs immersion; type: in vivo; conditions: 100 ppm, after 42 days
Method: as §2
To produce a suitable active compound formulation, 10 mg of active compound are mixed with 0.5 ml of dimethyl sulphoxide, and the concentrate is diluted with water to the desired concentration.
Tick nymphs (Amblyomma hebraeum) are placed into perforated plastic beakers and immersed in the desired concentration for one minute. The ticks are transferred on filter paper into a Petri dish and stored in a climate-controlled cabinet.

[9] = test system: Tetranychus urticae; experiment: Tetranychus urticae spray test, OP-resistant (bean leaf discs); type: in vivo; conditions: after 6 days
Method: as §1
After 6 days, the efficacy in % is determined.

[10] = test system: cattle ticks (Boophilus microplus) Parkhurst strain, SP-resistant; experiment: Boophilus microplus dip test; type: in vivo; conditions: 100 ppm, engorged adult female ticks, after 7 days
Method: Test animals: cattle ticks (Boophilus microplus) Parkhurst strain, SP-resistant
as §2
10 mg of active compound are dissolved in 0.5 ml of dimethyl sulphoxide. For the purpose of producing a suitable formulation, the active compound solution is diluted with water to the concentration desired in each case.
This active compound preparation is pipetted into tubes. 8-10 engorged adult female cattle ticks (Boophilus microplus) are transferred into a further tube with holes. The tube is immersed into the active compound preparation, and all the ticks are completely wetted. After the liquid has run out, the ticks are transferred on filter discs into plastic dishes and stored in a climate-controlled room.
as §3

[11] = test system: Rhipicephalus sanguineus; experiment: Rhipicephalus sanguineus in vitro contact test with adult brown dog ticks; type: in vivo; conditions: after 48 h, adult ticks dead or moribund
Method: (§4) For the coating of the test tubes, 9 mg of active compound are first dissolved in 1 ml of acetone p.a. and then diluted to the desired concentration with acetone p.a. 250 μl of the solution are distributed homogeneously on the inner walls and the base of a 25 ml test tube by turning and rocking on an orbital shaker (rocking rotation at 30 rpm for 2 h). With 900 ppm active compound solution and internal surface 44.7 cm^2, given homogeneous distribution, an area-based dose of 5 μg/cm^2 is achieved.
After the solvent has evaporated off, the tubes are populated with 5-10 adult dog ticks (Rhipicephalus sanguineus), sealed with a perforated plastic lid and incubated in a horizontal position in the dark at room temperature and ambient humidity. After 48 h, efficacy is determined. To this end, the ticks are knocked to the floor of the tube and incubated on a hotplate at 45-50° C. for not more than 5 min. Ticks which remain motionless on the floor or move in such an uncoordinated manner that they are unable to deliberately avoid the heat by climbing upwards are considered to be dead or moribund.
An efficacy of 100% means that all the ticks were dead or moribund. 0% efficacy means that none of the ticks had been harmed.

[12] = test system: Ctenocephalides felis; experiment: Ctenocephalides felis in vitro contact test with adult cat fleas; type: in vivo; conditions: application rate 5 μg/cm^2 (500 g/ha), after 48 h, adult cat fleas dead or moribund
Method: as §4
After the solvent has evaporated off, the tubes are populated with 5-10 adult cat fleas (Ctenocephalides felis), sealed with a perforated plastic lid and incubated in a horizontal position at room temperature and ambient humidity. After 48 h, efficacy is determined. To this end, the test tubes are stood upright and the fleas are knocked to the base of the tube. Fleas which remain motionless at the base or move in an uncoordinated manner are considered to be dead or moribund.
100% efficacy means that all the fleas were dead or moribund. 0% efficacy means that no fleas were harmed.

[13] = application rate 5 μg/cm^2 (500 g/ha)

chromatographic logP [7] | SMILES | efficacy ([1]; 100 g/ha) | efficacy (laying of fertile eggs) [2] | efficacy ([3]; 100 g/ha) | efficacy (kill in %) [4] | efficacy (kill in %) [5] | efficacy (kill in %) [6] | logP [7] | efficacy (kill in %) [8] | efficacy ([9]; 100 g/ha) | efficacy (laying of fertile eggs) [10] | efficacy ([11]; application rate 1 μg/cm^2 (100 g/ha)) | efficacy [11, 13] | efficacy [12] | efficacy ([1]; 500 g/ha) | efficacy ([3]; 500 g/ha) | efficacy ([9]; 500 g/ha)
 | Cn1nc(C(F)(F)C(F)(F)F)c(C(F)(F)F)c1-c1ccc(-c2ccc(Cl)c(C(=O)NC3(C#N)CC3)c2)o1 [Iaa-1] | 100% | 100% | 100% | 100% | 100% | 100% | 4.08 |  |  |  |  |  |  |  |  | 
 | Cn1nc(C(F)(F)C(F)(F)F)c(C(F)(F)F)c1-c1coc(-c2ccc(Cl)c(C(=O)NC3CC3)c2)c1 [Iac-3] | 100% | 100% | 100% | 100% | 100% | 100% | 4.08 | 100% | 100% | 100% |  |  |  |  |  | 
 | Cn1nc(C(F)(F)C(F)(F)F)c(C(F)(F)F)c1-c1cc(-c2ccc(Cl)c(C(=O)NCC(F)(F)F)c2)no1 [Iap-2] | 100% | 100% | 100% | 100% | 100% | 100% | 4.42 |  |  |  | 80% |  |  |  |  | 
 | Cn1nc(C(F)(F)C(F)(F)F)c(C(F)(F)F)c1-c1cc(-c2ccc(Cl)c(C(=O)NC3(C#N)CC3)c2)no1 [Iap-3] | 100% | 100% | 100% | 100% | 100% | 100% | 3.96 |  | 100% |  |  | 100% | 100% |  |  | 
 | Cn1nc(C(F)(F)C(F)(F)F)c(C(F)(F)F)c1-c1cc(-c2ccc(Cl)c(C(=O)NC3CSC3)c2)no1 [Iap-4] |  | 100% |  |  | 100% | 100% | 4.37 |  |  |  |  | 100% |  | 80% | 100% | 90%
 | Cn1nc(C(F)(F)C(F)(F)F)c(C(F)(F)F)c1-c1cc(-c2ccc(Cl)c(C(=O)NC3(C(F)(F)F)CC3)c2)no1 [Iap-5] |  | 100% | 100% | 100% | 100% | 100% | 4.55 |  |  |  |  |  |  |  |  | 
4.16 | Cn1nc(C(F)(F)C(F)(F)F)c(C(F)(F)F)c1-c1noc(-c2ccc(Cl)c(C(=O)NC3CC3)c2)n1 [Ibe-1, 2-chloro-N-cyclopropyl-5-{3-[1-methyl-3-(pentafluoroethyl)-4-(trifluoromethyl)-1H-pyrazol-5-yl]-1,2,4-oxadiazol-5-yl}benzamide] |  |  |  |  |  |  |  |  |  |  |  |  |  | 100% | 100% | 
 | Cn1nc(C(F)(F)C(F)(F)F)c(C(F)(F)F)c1-c1noc(-c2ccc(Cl)c(C(=O)NC3(C#N)CC3)c2)n1 [Ibe-4] |  | 100% |  | 100% | 100% | 100% | 4.01 |  |  |  |  |  |  | 100% | 100% | 90%
 | Cn1nc(C(F)(F)C(F)(F)F)c(C(F)(F)F)c1-c1nc(-c2ccc(Cl)c(C(=O)NC3(C#N)CC3)c2)no1 [Ibf-2] |  | 100% |  | 100% | 100% | 100% | 4.14 |  |  |  |  | 80% |  | 100% | 100% | 
 | Cn1nc(C(F)(F)C(F)(F)F)c(C(F)(F)F)c1-c1nc(-c2ccc(Cl)c(C(=O)NC3CC3)c2)no1 [Ibf-3] |  | 100% |  | 80% | 100% | 100% | 4.26 |  |  |  |  |  |  | 100% | 100% | 
 | CCn1nc(-c2ccc(Cl)c(C(=O)NC3CC3)c2)nc1-c1c(C(F)(F)F)c(C(F)(F)C(F)(F)F)nn1C [Ibg-5] |  |  |  |  |  |  | 4.09 |  |  |  |  |  |  |  | 100% | 90%
 | Cn1nc(-c2c(C(F)(F)F)c(C(F)(F)C(F)(F)F)nn2C)nc1-c1ccc(Cl)c(C(=O)NCC(F)(F)F)c1 [Ibh-3] |  |  |  |  |  |  | 3.99 |  |  |  |  |  |  | 100% | 100% | 90%
 | CCn1nc(-c2c(C(F)(F)F)c(C(F)(F)C(F)(F)F)nn2C)nc1-c1ccc(Cl)c(C(=O)NC2CC2)c1 [Ibh-4] |  | 100% |  | 90% | 100% | 90% | 3.99 |  |  |  |  |  |  |  | 100% | 100%
 | CCn1nc(-c2c(C(F)(F)F)c(C(F)(F)C(F)(F)F)nn2C)nc1-c1ccc(Cl)c(C(=O)NCC(F)(F)F)c1 [Ibh-5] |  |  |  |  |  |  | 4.32 |  |  |  |  |  |  |  | 100% | 
 | CC(C)n1nc(-c2c(C(F)(F)F)c(C(F)(F)C(F)(F)F)nn2C)nc1-c1ccc(Cl)c(C(=O)NC2CC2)c1 [Ibh-6] |  |  |  |  |  |  | 4.39 |  |  |  |  |  |  |  | 100% | 
 | Cn1nc(-c2c(C(F)(F)F)c(C(F)(F)C(F)(F)F)nn2C)nc1-c1ccc(Cl)c(C(=O)NC2CC2)c1 [Ibh-8] |  |  |  |  |  |  | 3.67 |  |  |  |  |  |  | 83% | 100% | 
